From US20240174662A1, “SMALL MOLECULE INHIBITORS OF SALT INDUCIBLE KINASES” (Janssen Biotech, Inc., priority 2021, published 2024)

Biological target: SIK2 (Homo sapiens (Human), UniProt Q9H0K1)
Test: SIK2 Enzymatic Assay Version 2 (High ATP)
Type: biochemical
Settings: 3 mM ATP and 200 μM HDAC5tide final, ADP-Glo Max luminescence
In short: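 Luminescent ADP-Glo Max read-out: depletion reagent 2 h, then detection reagent 1 h. Before the reaction, compounds were incubated 30 min with enzyme added at 6 nM (twice final concentration), with all steps at room temperature.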

Chain of SIK2 (Q9H0K1 whole entry, species assumed): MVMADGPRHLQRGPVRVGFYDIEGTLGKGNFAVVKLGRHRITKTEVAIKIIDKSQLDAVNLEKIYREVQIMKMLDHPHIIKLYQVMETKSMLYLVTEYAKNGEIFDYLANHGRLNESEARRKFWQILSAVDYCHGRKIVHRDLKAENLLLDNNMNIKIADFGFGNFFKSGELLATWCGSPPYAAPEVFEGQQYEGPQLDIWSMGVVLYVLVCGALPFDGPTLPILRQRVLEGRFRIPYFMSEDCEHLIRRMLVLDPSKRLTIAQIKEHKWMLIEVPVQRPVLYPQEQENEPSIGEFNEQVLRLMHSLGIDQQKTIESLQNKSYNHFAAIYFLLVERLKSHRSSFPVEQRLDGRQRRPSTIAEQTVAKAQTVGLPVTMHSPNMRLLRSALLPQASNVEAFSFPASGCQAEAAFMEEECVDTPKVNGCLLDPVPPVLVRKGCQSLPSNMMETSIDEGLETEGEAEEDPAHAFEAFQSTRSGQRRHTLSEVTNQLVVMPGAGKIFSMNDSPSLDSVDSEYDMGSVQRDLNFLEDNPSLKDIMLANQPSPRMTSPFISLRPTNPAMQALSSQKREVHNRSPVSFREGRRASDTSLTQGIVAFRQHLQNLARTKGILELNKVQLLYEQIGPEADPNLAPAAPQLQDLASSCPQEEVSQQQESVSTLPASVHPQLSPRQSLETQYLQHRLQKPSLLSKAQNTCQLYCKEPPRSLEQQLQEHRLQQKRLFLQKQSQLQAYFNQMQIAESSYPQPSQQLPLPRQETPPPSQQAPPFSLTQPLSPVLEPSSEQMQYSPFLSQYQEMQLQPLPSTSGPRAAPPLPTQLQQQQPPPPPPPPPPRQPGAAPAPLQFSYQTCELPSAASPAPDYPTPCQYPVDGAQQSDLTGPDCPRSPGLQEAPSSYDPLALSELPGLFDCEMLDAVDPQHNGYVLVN

SMILES | IC50 [nM]
CCn1ncc(OC[C@@H]2CCN(C)C2)c1-c1ccn2nc(NC(=O)C3CC3)cc2c1 [Example 398, N-[5-[2-ethyl-4-[[(3R)-1-methylpyrrolidin-3-yl]methoxy]pyrazol-3-yl]pyrazolo[1,5-a]pyridin-2-yl]cyclopropanecarboxamide] | 97.8
CN1CC[C@H](Oc2cnn(C)c2-c2ccn3nc(Nc4ccncn4)cc3c2)C1 [Example 455, 5-[2-methyl-4-[(3S)-1-methylpyrrolidin-3-yl]oxy-pyrazol-3-yl]-N-pyrimidin-4-yl-pyrazolo[1,5-a]pyridin-2-amine] | 137
CCN1CC[C@@H]1COc1cnn(C)c1-c1ccn2nc(Nc3ccnc(C)n3)cc2c1 [Example 65, 5-[4-[[(2R)-1-ethylazetidin-2-yl]methoxy]-2-methyl-pyrazol-3-yl]-N-(2-methylpyrimidin-4-yl)pyrazolo[1,5-a]pyridin-2-amine] | < 0.847
Cc1onc(OC[C@H]2CCCN2C)c1-c1ccn2nc(NC(=O)C3CC3)cc2c1 [Example 388, N-[5-[5-methyl-3-[[(2R)-1-methylpyrrolidin-2-yl]methoxy]isoxazol-4-yl]pyrazolo[1,5-a]pyridin-2-yl]cyclopropanecarboxamide] | 146
CO[C@H]1CNC[C@H]1Oc1noc(C)c1-c1ccn2nc(Nc3cc(C)c(C)nn3)cc2c1 [Example 95, N-(5,6-dimethylpyridazin-3-yl)-5-[3-[(3R,4S)-4-methoxypyrrolidin-3-yl]oxy-5-methyl-isoxazol-4-yl]pyrazolo[1,5-a]pyridin-2-amine] | 5.3
CO[C@]1(COc2cnn(C(F)F)c2-c2ccn3nc(Nc4cc(C)nc(C)n4)cc3c2)CCNC1 (single isomer, unassigned) [Example 261, (*R)-5-(1-(difluoromethyl)-4-((3-methoxypyrrolidin-3-yl)methoxy)-1H-pyrazol-5-yl)-N-(2,6-dimethylpyrimidin-4-yl)pyrazolo[1,5-a]pyridin-2-amine] | 5.5
Cc1onc(O[C@@H]2CCNC[C@@H]2F)c1-c1ccn2nc(NC(=O)C3CC3)cc2c1 (racemic) [Example 211, (rac-cis)-N-[5-[3-[(3-fluoro-4-piperidyl)oxy]-5-methyl-isoxazol-4-yl]pyrazolo[1,5-a]pyridin-2-yl]cyclopropanecarboxamide] | 32.5
CN1CC[C@@H](OCc2cnn(C)c2-c2ccn3nc(NC(=O)C4CC4)cc3c2)C1 [Example 362, N-[5-[2-methyl-4-[[(3R)-1-methylpyrrolidin-3-yl]oxymethyl]pyrazol-3-yl]pyrazolo[1,5-a]pyridin-2-yl]cyclopropanecarboxamide] | 52.8
CN1CC2(CC2)C1COc1cnn(C)c1-c1ccn2nc(NC(=O)C3CC3)cc2c1 (racemic) [Example 51, (rac)-N-[5-[2-methyl-4-[(5-methyl-5-azaspiro[2.3]hexan-6-yl)methoxy]pyrazol-3-yl]pyrazolo[1,5-a]pyridin-2-yl]cyclopropanecarboxamide] | 47
CN1CC[C@H](Oc2cnn(C)c2-c2ccn3nc(Nc4cccnn4)cc3c2)C1 [Example 449, 5-[2-methyl-4-[(3S)-1-methylpyrrolidin-3-yl]oxy-pyrazol-3-yl]-N-pyridazin-3-yl-pyrazolo[1,5-a]pyridin-2-amine] | 89.5
CNC(=O)c1cnc(Nc2cc3cc(-c4c(OC[C@H]5CCN5C)cnn4C)ccn3n2)cn1 [Example 133, N-methyl-5-[[5-[2-methyl-4-[[(2R)-1-methylazetidin-2-yl]methoxy]pyrazol-3-yl]pyrazolo[1,5-a]pyridin-2-yl]amino]pyrazine-2-carboxamide] | 7.1
CCN1CC[C@@H]1COc1cnn(C)c1-c1ccn2nc(Nc3ccc(OC)cn3)cc2c1 [Example 166, 5-[4-[[(2R)-1-ethylazetidin-2-yl]methoxy]-2-methyl-pyrazol-3-yl]-N-(5-methoxy-2-pyridyl)pyrazolo[1,5-a]pyridin-2-amine] | 1.8
Cc1cncc(Nc2cc3cc(-c4c(OC[C@H]5CCN5CCF)cnn4C)ccn3n2)n1 [Example 278, 5-[4-[[(2R)-1-(2-fluoroethyl)azetidin-2-yl]methoxy]-2-methyl-pyrazol-3-yl]-N-(6-methylpyrazin-2-yl)pyrazolo[1,5-a]pyridin-2-amine] | 1
Cc1onc(OC[C@H]2CCN2C)c1-c1ccn2nc(NC(=O)C3CC3)cc2c1 [Example 87, N-[5-[5-methyl-3-[[(2R)-1-methylazetidin-2-yl]methoxy]isoxazol-4-yl]pyrazolo[1,5-a]pyridin-2-yl]cyclopropanecarboxamide] | 16.5
Cn1ncc(OC[C@H]2CCN2CC(F)(F)F)c1-c1ccn2nc(NC(=O)C3CC3)cc2c1 [Example 315, N-[5-[2-methyl-4-[[(2R)-1-(2,2,2-trifluoroethyl)azetidin-2-yl]methoxy]pyrazol-3-yl]pyrazolo[1,5-a]pyridin-2-yl]cyclopropanecarboxamide] | 14.1
CCN1CC[C@@H]1COc1cnn(C)c1-c1ccn2nc(Nc3cc(C)ncn3)cc2c1 [Example 19, 5-[4-[[(2R)-1-Ethylazetidin-2-yl]methoxy]-2-methyl-pyrazol-3-yl]-N-(6-methylpyrimidin-4-yl)pyrazolo[1,5-a]pyridin-2-amine] | 1.2
Cc1cc(Nc2cc3cc(-c4c(OC[C@@H]5CCN(C)C5=O)cnn4C)ccn3n2)nc(C)n1 (single isomer, unassigned) [Example 34, (*S)-3-[[5-[2-[(2,6-dimethylpyrimidin-4-yl)amino]pyrazolo[1,5-a]pyridin-5-yl]-1-methyl-pyrazol-4-yl]oxymethyl]-1-methyl-pyrrolidin-2-one] | 9.2
Cn1ncc(OC[C@@H](O)c2ccccc2)c1-c1ccn2nc(NC(=O)C3CC3)cc2c1 [Example 27, N-[5-[4-[(2S)-2-hydroxy-2-phenyl-ethoxy]-2-methyl-pyrazol-3-yl]pyrazolo[1,5-a]pyridin-2-yl]cyclopropanecarboxamide] | 11.8
Cc1cc(Nc2cc3cc(-c4c(OC[C@H]5CCCN5C)cnn4C)ccn3n2)ncn1 [Example 285, 5-[2-methyl-4-[[(2R)-1-methylpyrrolidin-2-yl]methoxy]pyrazol-3-yl]-N-(6-methylpyrimidin-4-yl)pyrazolo[1,5-a]pyridin-2-amine] | 18.5
Cc1ncc(Nc2cc3cc(-c4c(OC[C@@H]5CCN5C)cnn4C)ccn3n2)nc1C [Example 138, N-(5,6-dimethylpyrazin-2-yl)-5-[2-methyl-4-[[(2S)-1-methylazetidin-2-yl]methoxy]pyrazol-3-yl]pyrazolo[1,5-a]pyridin-2-amine] | 40.3
CN1CC(COc2cnn(C)c2-c2ccn3nc(NC(=O)C4CC4)cc3c2)C1 [Example 8, N-[5-[2-methyl-4-[(1-methylazetidin-3-yl)methoxy]pyrazol-3-yl]pyrazolo[1,5-a]pyridin-2-yl]cyclopropanecarboxamide] | 18.9
Cc1cc(Nc2cc3cc(-c4c(CO[C@@H]5CN(C)C[C@H]5C)cnn4C)ccn3n2)nc(C)n1 (relative stereo) [Example 365, Trans-*R, *S—N-(2,6-dimethylpyrimidin-4-yl)-5-[4-[(1,4-dimethylpyrrolidin-3-yl)oxymethyl]-2-methyl-pyrazol-3-yl]pyrazolo[1,5-a]pyridin-2-amine] | 1.3
C[C@H]1C[C@@H]1C(=O)Nc1cc2cc(-c3c(OC[C@H]4CCN4C)cnn3C)ccn2n1 [Example 15, (1S,2S)-2-methyl-N-[5-[2-methyl-4-[[(2R)-1-methylazetidin-2-yl]methoxy]pyrazol-3-yl]pyrazolo[1,5-a]pyridin-2-yl]cyclopropanecarboxamide] | 9.1
CCN1CC[C@@H]1COc1cnn(C)c1-c1ccn2nc(Nc3cnc(OC(F)F)cn3)cc2c1 [Example 181, N-[5-(difluoromethoxy)pyrazin-2-yl]-5-[4-[[(2R)-1-ethylazetidin-2-yl]methoxy]-2-methyl-pyrazol-3-yl]pyrazolo[1,5-a]pyridin-2-amine] | 2.2
CN1CC[C@@H]1COc1cnn(C)c1-c1ccn2nc(Nc3ccc4nccn4n3)cc2c1 [Example 149, N-[5-[2-methyl-4-[[(2R)-1-methylazetidin-2-yl]methoxy]pyrazol-3-yl]pyrazolo[1,5-a]pyridin-2-yl]imidazo[1,2-b]pyridazin-6-amine] | 2
[2H]C([2H])([2H])C([2H])([2H])N1CC[C@@H]1COc1cnn(C)c1-c1ccn2nc(Nc3cc(C)nc(C)n3)cc2c1 [Example 294, N-(2,6-dimethylpyrimidin-4-yl)-5-[2-methyl-4-[[(2R)-1-(1,1,2,2,2-pentadeuterioethyl)azetidin-2-yl]methoxy]pyrazol-3-yl]pyrazolo[1,5-a]pyridin-2-amine] | 2.6
Cc1cc(Nc2cc3cc(-c4c(OCC(N)C56CC(C5)C6)cnn4C)ccn3n2)nc(C)n1 (stereo not drawn) [Example 310, 5-[4-[2-amino-2-(3-bicyclo[1.1.1]pentanyl)ethoxy]-2-methyl-pyrazol-3-yl]-N-(2,6-dimethylpyrimidin-4-yl)pyrazolo[1,5-a]pyridin-2-amine] | 4
CCn1ncc(OC[C@H]2CCN2C)c1-c1ccn2nc(Nc3cc(C)nc(C)n3)cc2c1 [Example 130, N-(2,6-dimethylpyrimidin-4-yl)-5-[2-ethyl-4-[[(2R)-1-methylazetidin-2-yl]methoxy]pyrazol-3-yl]pyrazolo[1,5-a]pyridin-2-amine] | < 0.847
CO[C@@H]1CNC[C@H]1COc1cnn(C)c1-c1ccn2nc(NC(=O)C3CC3)cc2c1 [Example 422, N-[5-[4-[[(3S,4S)-4-methoxypyrrolidin-3-yl]methoxy]-2-methyl-pyrazol-3-yl]pyrazolo[1,5-a]pyridin-2-yl]cyclopropanecarboxamide] | 96.9
Cn1ncc(OC[C@@H](N)C(C)(C)O)c1-c1ccn2nc(NC(=O)C3CC3)cc2c1 [Example 426, N-[5-[4-[(2R)-2-amino-3-hydroxy-3-methyl-butoxy]-2-methyl-pyrazol-3-yl]pyrazolo[1,5-a]pyridin-2-yl]cyclopropanecarboxamide] | 71.6
